Key:
MDA-MB-231 = assay: MTS assay, MDA-MB-231 cells; assay type: cell-based; conditions: Homo sapiens, 72 hours, read-out: MDA-MB-231, MTS cell kill % inhibition
Procedure, shortened: (§1)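 First, seed 3000 cells per well in low-serum (1% FBS) DMEM and culture 18 h. Next, add compounds prepared at 300× in DMSO and diluted 1:40 in DMEM; incubate 72 h. Finally, add MTS/PMS for 4 h and measure absorbance at 492 nm.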

IGF-1R = IGF-1R (Homo sapiens, UniProt P08069); assay: IGFR1 activity assay (ELISA); assay type: biochemical; conditions: read-out: IGF-1R, PCT INH (30 μM), ELISA
Procedure, shortened: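 IGF1R (0.33 ng/μL final) phosphorylating Pyk-2 (0.05 ng/μL final) in buffer with 12.5 μM ATP, 10 mM MgCl2, 1 h room temperature. Product captured on streptavidin plates, detected with anti-phosphotyrosine and alkaline phosphatase secondary antibody, Attophos fluorescent readout.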

KATO III = assay: MTS assay, KATO III cells; assay type: cell-based; conditions: Homo sapiens, 72 hours, read-out: KATO III, MTS cell kill % inhibition
Procedure, shortened: as §1

NCI-H1299 = assay: MTS assay, NCI-H1299 cells; assay type: cell-based; conditions: Homo sapiens, 72 hours, read-out: NCI-H1299, MTS cell kill % inhibition
Procedure, shortened: as §1

DLD-1 = assay: MTS assay, DLD-1 cells; assay type: cell-based; conditions: Homo sapiens, 72 hours, read-out: DLD-1, MTS cell kill % inhibition
Procedure, shortened: as §1

Sequence of IGF-1R (P08069 31-1367): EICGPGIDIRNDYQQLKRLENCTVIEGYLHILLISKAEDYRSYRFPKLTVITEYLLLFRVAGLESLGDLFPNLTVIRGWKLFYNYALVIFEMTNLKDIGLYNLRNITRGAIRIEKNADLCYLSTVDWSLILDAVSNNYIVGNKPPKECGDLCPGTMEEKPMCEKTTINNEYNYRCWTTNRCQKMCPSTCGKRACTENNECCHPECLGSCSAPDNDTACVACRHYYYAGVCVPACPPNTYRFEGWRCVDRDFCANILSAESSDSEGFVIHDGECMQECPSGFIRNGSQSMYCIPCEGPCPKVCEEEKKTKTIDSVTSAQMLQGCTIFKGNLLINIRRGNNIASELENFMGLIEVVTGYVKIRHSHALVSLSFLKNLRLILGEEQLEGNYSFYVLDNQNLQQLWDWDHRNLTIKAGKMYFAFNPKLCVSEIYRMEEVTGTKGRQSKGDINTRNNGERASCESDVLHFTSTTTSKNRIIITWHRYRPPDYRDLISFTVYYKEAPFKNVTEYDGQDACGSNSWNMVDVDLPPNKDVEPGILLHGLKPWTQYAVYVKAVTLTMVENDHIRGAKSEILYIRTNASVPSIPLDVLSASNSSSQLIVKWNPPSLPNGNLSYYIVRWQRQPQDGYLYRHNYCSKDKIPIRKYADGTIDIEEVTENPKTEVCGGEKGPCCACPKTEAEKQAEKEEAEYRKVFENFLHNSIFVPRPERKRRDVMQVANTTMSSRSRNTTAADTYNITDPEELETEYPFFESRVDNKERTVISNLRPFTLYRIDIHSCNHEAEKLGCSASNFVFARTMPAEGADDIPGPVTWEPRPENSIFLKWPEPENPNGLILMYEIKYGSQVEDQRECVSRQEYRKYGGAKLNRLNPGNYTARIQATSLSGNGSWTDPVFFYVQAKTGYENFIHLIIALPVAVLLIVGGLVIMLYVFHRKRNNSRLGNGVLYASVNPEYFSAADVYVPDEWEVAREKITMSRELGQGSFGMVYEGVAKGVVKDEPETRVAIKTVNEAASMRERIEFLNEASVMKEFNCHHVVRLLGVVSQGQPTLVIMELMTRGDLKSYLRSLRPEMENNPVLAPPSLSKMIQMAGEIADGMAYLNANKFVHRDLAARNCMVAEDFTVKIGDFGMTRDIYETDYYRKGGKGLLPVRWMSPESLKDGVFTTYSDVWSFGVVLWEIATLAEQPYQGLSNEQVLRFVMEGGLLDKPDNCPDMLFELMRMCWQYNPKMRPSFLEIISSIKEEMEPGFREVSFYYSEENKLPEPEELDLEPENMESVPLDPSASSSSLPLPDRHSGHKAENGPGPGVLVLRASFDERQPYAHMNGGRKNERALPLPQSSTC

| Compound | inhibition at 10 µM (MDA-MB-231) [%] | inhibition at 30 µM (IGF-1R) [%] | inhibition at 10 µM (KATO III) [%] | melting point [°C] | inhibition at 10 µM (NCI-H1299) [%] | inhibition at 10 µM (DLD-1) [%] |
| --- | --- | --- | --- | --- | --- | --- |
| O=C(NCCCN1CCOCC1)c1ccc2[nH]c(-c3ccc[nH]c3=O)c(-c3ccccc3)c2c1 [Compound 1, N-(3-morpholin-4-ylpropyl)-2-(2-oxo-1,2-dihydropyridin-3-yl)-3-phenyl-1H-indole-5-carboxamide] | 80 to 100 | 80 to 100 | 80 to 100 | 238 to 244 | 80 to 100 | 80 to 100 |
| CCN(CC)CCCNC(=O)c1ccc2[nH]c(-c3ccc[nH]c3=O)c(-c3ccccc3)c2c1 [Compound 2, N-[3-(diethylamino)propyl]-2-(2-oxo-1,2-dihydropyridin-3-yl)-3-phenyl-1H-indole-5-carboxamide] | 50 to 79 | 80 to 100 | 80 to 100 | 190 to 198 | 50 to 79 | 50 to 79 |
| O=C(NC1CCNCC1)c1ccc2[nH]c(-c3ccc[nH]c3=O)c(-c3ccccc3)c2c1 [Compound 3, 2-(2-oxo-1,2-dihydropyridin-3-yl)-3-phenyl-N-piperidin-4-yl-1H-indole-5-carboxamide] | – | 50 to 79 | – | 233 to 236 | – | – |
| O=C(NCC1CCNCC1)c1ccc2[nH]c(-c3ccc[nH]c3=O)c(-c3ccccc3)c2c1 [Compound 4, 2-(2-oxo-1,2-dihydropyridin-3-yl)-3-phenyl-N-(piperidin-4-ylmethyl)-1H-indole-5-carboxamide] | – | 80 to 100 | – | 189 to 191 | – | – |
| CN1CCCC1CCNC(=O)c1ccc2[nH]c(-c3ccc[nH]c3=O)c(-c3ccccc3)c2c1 (stereo not shown) [Compound 5, N-[2-(1-methylpyrrolidin-2-yl)ethyl]-2-(2-oxo-1,2-dihydropyridin-3-yl)-3-phenyl-1H-indole-5-carboxamide] | 50 to 79 | < 50 | 80 to 100 | 185 to 188 | 80 to 100 | 50 to 79 |
| O=C(NCCCN1CCOCC1)c1ccc2[nH]c(-c3ccc[nH]c3=O)c(-c3cc4cccc5c4n3CCC5)c2c1 [Compound 8, 3-(5,6-dihydro-4H-pyrrolo[3,2,1-ij]quinolin-2-yl)-N-(3-morpholin-4-ylpropyl)-2-(2-oxo-1,2-dihydropyridin-3-yl)-1H-indole-5-carboxamide] | 80 to 100 | 50 to 79 | 80 to 100 | 181 to 189 | 80 to 100 | 80 to 100 |
| COC(=O)c1ccc2[nH]c(-c3ccc[nH]c3=O)c(-c3ccc(-c4ccccc4)cc3)c2c1 [Compound 9, methyl 3-biphenyl-4-yl-2-(2-oxo-1,2-dihydropyridin-3-yl)-1H-indole-5-carboxylate] | < 50 | < 50 | < 50 | > 300 | < 50 | < 50 |
| O=C(Nc1ccccc1Cl)c1ccc2[nH]c(-c3ccc[nH]c3=O)c(-c3ccccc3)c2c1 [Compound 12, N-(2-chlorophenyl)-2-(2-oxo-1,2-dihydropyridin-3-yl)-3-phenyl-1H-indole-5-carboxamide] | 50 to 79 | < 50 | 80 to 100 | > 300 | 80 to 100 | 80 to 100 |
| O=C(Nc1cccc(F)c1)c1ccc2[nH]c(-c3ccc[nH]c3=O)c(-c3ccccc3)c2c1 [Compound 13, N-(3-fluorophenyl)-2-(2-oxo-1,2-dihydropyridin-3-yl)-3-phenyl-1H-indole-5-carboxamide] | 50 to 79 | 50 to 79 | 80 to 100 | 176 to 182 | 80 to 100 | 80 to 100 |
| O=C(Nc1ccccc1F)c1ccc2[nH]c(-c3ccc[nH]c3=O)c(-c3ccccc3)c2c1 [Compound 15, N-(2-fluorophenyl)-2-(2-oxo-1,2-dihydropyridin-3-yl)-3-phenyl-1H-indole-5-carboxamide] | 50 to 79 | 80 to 100 | 80 to 100 | > 300 | 50 to 79 | 80 to 100 |
| Cc1ccccc1N(C)C(=O)c1ccc2[nH]c(-c3ccc[nH]c3=O)c(-c3ccccc3)c2c1 [Compound 16, N-methyl-N-(2-methylphenyl)-2-(2-oxo-1,2-dihydropyridin-3-yl)-3-phenyl-1H-indole-5-carboxamide] | < 50 | 80 to 100 | 80 to 100 | 216 to 220 | 50 to 79 | 50 to 79 |
| O=C(c1ccc2[nH]c(-c3ccc[nH]c3=O)c(-c3ccccc3)c2c1)N1CCc2ccccc2C1 [Compound 28, 3-[5-(3,4-dihydroisoquinolin-2(1H)-ylcarbonyl)-3-phenyl-1H-indol-2-yl]pyridin-2(1H)-one] | – | 80 to 100 | 80 to 100 | 171 to 177 | 80 to 100 | 80 to 100 |
| O=C(c1ccc2[nH]c(-c3ccc[nH]c3=O)c(-c3ccc(-c4ccccc4)cc3)c2c1)N1CCc2ccccc2C1 [Compound 47, 3-[3-biphenyl-4-yl-5-(3,4-dihydroisoquinolin-2(1H)-ylcarbonyl)-1H-indol-2-yl]pyridin-2(1H)-one] | < 50 | – | 50 to 79 | 101 to 110 | < 50 | 50 to 79 |
| COc1ccc(NC(=O)c2ccc3[nH]c(-c4ccc[nH]c4=O)c(-c4ccc(-c5ccccc5)cc4)c3c2)cc1 [Compound 48, 3-biphenyl-4-yl-N-(4-methoxyphenyl)-2-(2-oxo-1,2-dihydropyridin-3-yl)-1H-indole-5-carboxamide] | – | < 50 | 50 to 79 | 154 to 162 | 50 to 79 | 50 to 79 |
| O=C(NCCCN1CCOCC1)c1ccc2[nH]c(-c3ccc[nH]c3=O)cc2c1 [Compound 55, N-(3-morpholin-4-ylpropyl)-2-(2-oxo-1,2-dihydropyridin-3-yl)-1H-indole-5-carboxamide] | < 50 | 80 to 100 | < 50 | 130 to 132 | – | – |
| CC(C)c1cccc(-c2c(-c3ccc[nH]c3=O)[nH]c3ccc(C(=O)NCCCN4CCOCC4)cc23)c1 [Compound 71, 3-(3-isopropylphenyl)-N-(3-morpholin-4-ylpropyl)-2-(2-oxo-1,2-dihydropyridin-3-yl)-1H-indole-5-carboxamide] | 80 to 100 | – | 80 to 100 | 89 to 92 | 80 to 100 | 80 to 100 |
| O=C(NCCCN1CCOCC1)c1ccc2[nH]c(-c3ccc[nH]c3=O)c(-c3cc(Cl)cc(Cl)c3)c2c1 [Compound 75, 3-(3,5-dichlorophenyl)-N-(3-morpholin-4-ylpropyl)-2-(2-oxo-1,2-dihydropyridin-3-yl)-1H-indole-5-carboxamide] | 80 to 100 | – | 80 to 100 | 125 to 130 | 80 to 100 | 80 to 100 |
| O=c1[nH]cccc1-c1[nH]c2ccccc2c1C1CCN(S(=O)(=O)c2ccccc2)CC1 [Compound 86, 3-{3-[1-(phenylsulfonyl)piperidin-4-yl]-1H-indol-2-yl}pyridin-2(1H)-one] | < 50 | – | < 50 | 215 to 217 | < 50 | < 50 |
| O=C(c1ccccc1)N1CCC(c2c(-c3ccc[nH]c3=O)[nH]c3ccccc23)CC1 [Compound 87, 3-[3-(1-benzoylpiperidin-4-yl)-1H-indol-2-yl]pyridin-2(1H)-one] | 80 to 100 | – | < 50 | 294 to 296 | < 50 | < 50 |

Reference: US8410144B2, “Substituted indolo-pyridinone compounds” (ArQule, Inc., priority 2009, dated 2013)
